Results on six molecules are retold here after US20110224231A1, “Novel Lactams as Beta Secretase Inhibitors” (Pfizer Inc., priority 2008, published 2011).

The assay deals with T1, soluble human BACE (Homo sapiens, UniProt P56817).
T1 construct: cells secreting human recombinant soluble BACE; made in house; conditioned medium
The assay can be described thus: BACE activity Cell Free Assay (ELISA of cleaved synthetic APP substrate). The class given is biochemical.

Where [1] appears, read: Table 6, cell free, soluble human BACE, pH 4.5, 3 μM substrate, read-out: BACE Activity (Cell Free Assay IC50).

Structures can show the parent of a compound that is named as a salt. Where two headings read alike, the source gives them in different places.

T1 sequence (P56817 46-457 limits assumed): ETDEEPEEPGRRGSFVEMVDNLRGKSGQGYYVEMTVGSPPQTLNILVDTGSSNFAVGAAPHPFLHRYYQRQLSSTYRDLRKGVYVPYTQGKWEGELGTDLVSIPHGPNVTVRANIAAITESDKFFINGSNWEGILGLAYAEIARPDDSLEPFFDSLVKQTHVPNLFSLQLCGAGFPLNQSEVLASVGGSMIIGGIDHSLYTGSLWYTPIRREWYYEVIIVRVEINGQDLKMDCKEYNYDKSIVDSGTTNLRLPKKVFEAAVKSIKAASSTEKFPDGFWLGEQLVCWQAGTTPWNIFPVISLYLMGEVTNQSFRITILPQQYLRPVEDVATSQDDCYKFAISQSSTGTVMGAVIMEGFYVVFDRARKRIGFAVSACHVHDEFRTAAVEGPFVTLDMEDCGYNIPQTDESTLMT

On to `CC(C)Oc1cccc(CN2CC[C@]3(C=CC(=O)N3CC3CC3)C[C@@H]2C)c1` [Example @93, (5R,7S)-1-(cyclopropylmethyl)-8-(3-isopropoxybenzyl)-7-methyl-1,8-diazaspiro[4.5]dec-3-en-2-one], for which the IC50 under setting [1] lay in the range of 100 to 300 µM.
The same measure, in the same setting: the result for `CCCN1C(=O)C=C[C@]12CCN(Cc1cccc(OC(C)C)c1)[C@@H](C)C2` [Example @94, (5R,7S)˜8˜(3˜isopropoxybenzyl)˜7˜methyl˜1˜propyl˜1,8-diazaspiro[4.5]dec˜3˜en˜2˜one] reads 100 to 300 µM.
Still for that read-out and setting: the result for `CC(C)Oc1cccc(CN2CC[C@]3(C=CC(=O)N3C3CC3)C[C@@H]2C)c1` [Example @95, (5R,7S)-1-Cyclopropyl-8-(3-isopropoxybenzyl)-7-methyl-1,8-diazaspiro[4.5]dec-3-en-2˜one, trifluoroacetate salt] reads 100 to 300 µM.
Consider `CC(C)Oc1cccc(CN2CC[C@]3(CC(C)C(=O)N3c3cccc(F)c3)C[C@@H]2C)c1` (stereo partly drawn) [Example @96, (5R,7S)˜1˜(3˜Fluorophenyl)˜8˜(3˜isopropoxybenzyl)˜3,7˜dimethyl˜1,8˜diazaspiro[4.5]decan˜2˜one, hydrochloride salt], for which the IC50 was 10 to 100 µM.
On the same count and under the same terms, the result for `CC(C)Oc1cc(CN2CC[C@]3(C=C(c4ccccc4)C(=O)N3c3cccc(F)c3)C[C@@H]2C)ccc1O` [Example @97, (5R,7S)-1-(3-Fluorophenyl)-8-(4-hydroxy-3-isopropoxybenzyl)-7-methyl-3-phenyl-1,8-diazaspiro[4.5]dec-3-en-2-one, hydrochloride salt] reads 1 to 10 µM; that for `CC1=C[C@]2(CCN(Cc3ccc(O)c(OC(C)C)c3)[C@@H](C)C2)N(c2cccc(F)c2)C1=O` [Example @98, (5R,7S)-1-(3-Fluorophenyl)-8-(4-hydroxy-3-isopropoxybenzyl)-3,7-dimethyl-1,8-diazaspiro[4.5]dec-3-en-2-one, hydrochloride salt], 0.001 to 1 µM.
